In one experiment the target is T1, human 5-HT7 receptor (Homo sapiens, UniProt P34969).
T1 construct: expressed in transfected cells; host or cells: CHO
The experiment is described as follows: 5-HT7 receptor binding test. As to conditions: human 5-HT7 receptor expressing CHO cell membrane; radio-ligand [3H] 5-HT. On the procedure:
Test Method (2) 5-HT7 Receptor Binding Test (i) Preparation of Membrane Sample
Cultured human 5-HT7 receptor expressing CHO cells were washed with PBS(−). The cells were peeled off with a scraper in the presence of PBS(−), and the cells were recovered by centrifugation (1,000 rpm, 10 minutes, 4° C.). In the presence of 5 mM Tris-HCl (pH 7.4) buffer, homogenized using a homogenizer (registered trademark: Polytron (PTA 10-TS)), and centrifugation-treated (40,000×g, 10 minutes, 4° C.). In the presence of 50 mM Tris-HCl (pH 7.4) buffer, suspended using Glass-Teflon (registered trademark) homogenizer. By carrying out centrifugation treatment (40,000×g, 10 minutes, 4° C.), suspended in 50 mM Tris-HCl (pH 7.4) and stored at −80° C.
(§1) (ii) Receptor Binding Test
A total volume of 500 μl containing 50 mM Tris-HCl, a 4 mM CaCl2 (pH 7.4) buffer, a human 5-HT7 receptor expressing CHO cell membrane preparation and a radio-ligand [^3H] 5-HT (3.40 TBq/mmol) was incubated at 25° C. for 1 hour. The compound was dissolved in 100% DMSO and diluted to respective concentrations.
Binding quantity in the presence of 10 μM metergoline was regarded as the nonspecific binding, and a result of subtracting the nonspecific binding quantity from the total binding quantity was regarded as the specific binding quantity. After adding 4 ml of 50 mM Tris-HCl buffer (pH 7.4) and filtering under a reduced pressure using a GF/B glass filter, the filter was washed (4 ml×3) with the same buffer. By soaking the glass filter in 5 ml of a liquid scintillator (trade name: Aquasol-2), the radioactivity quantity was measured using a liquid scintillation counter.

The target in the next experiment is T2, human 5-HT2B receptor (Homo sapiens, UniProt P41595).
T2 construct: expressed in transfected cells; host or cells: HEK293-EBNA
T2 sequence (P41595 whole entry): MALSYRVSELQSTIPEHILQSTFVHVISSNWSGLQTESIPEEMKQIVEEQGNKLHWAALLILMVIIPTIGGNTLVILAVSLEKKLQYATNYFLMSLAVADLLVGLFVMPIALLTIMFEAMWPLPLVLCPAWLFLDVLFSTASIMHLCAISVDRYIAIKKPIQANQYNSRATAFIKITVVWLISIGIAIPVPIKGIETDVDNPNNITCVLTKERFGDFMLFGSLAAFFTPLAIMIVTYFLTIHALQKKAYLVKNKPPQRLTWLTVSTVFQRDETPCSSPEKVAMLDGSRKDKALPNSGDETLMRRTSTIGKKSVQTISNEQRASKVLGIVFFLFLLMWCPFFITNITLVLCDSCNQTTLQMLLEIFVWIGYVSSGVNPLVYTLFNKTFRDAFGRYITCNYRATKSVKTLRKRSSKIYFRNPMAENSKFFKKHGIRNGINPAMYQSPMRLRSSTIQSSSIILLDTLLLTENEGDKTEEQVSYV
The experiment is described as follows: 5-HT2B receptor binding test. As to conditions: human 5-HT2B receptor expressing HEK293-EBNA cell membrane; radio-ligand [3H] Mesulergine or [3H] Serotonin. On the procedure: Effects of the compound (I) of the present invention were verified by the following pharmacological tests. • Test Method (1) 5-HT2B Receptor Binding Test • (i) Preparation of Membrane Sample
Cultured human 5-HT2B receptor expressing HEK293-EBNA cells were washed with a phosphate buffer (PBS)(−). The cells were peeled off with a scraper in the presence of PBS(−), and the cells were recovered by centrifugation (1,000 rpm, 10 minutes, 4° C.). In the presence of 5 mM tris-hydrochloric acid (Tris-HCl) (pH 7.4) buffer, homogenized using a homogenizer (registered trademark: Polytron (PTA 10-TS)), and centrifugation-treated (40,000×g, 10 minutes, 4° C.). In the presence of 50 mM Tris-HCl (pH 7.4) buffer, suspended using Glass-Teflon (registered trademark) homogenizer. By carrying out centrifugation treatment (40,000×g, 10 minutes, 4° C.), suspended in 50 mM Tris-HCl (pH 7.4) and stored at −80° C.
as §1
A total volume of 500 μl containing 50 mM Tris-HCl, a 4 mM CaCl2 (pH 7.4) buffer, a human 5-HT2B receptor expressing HEK293-EBNA cell membrane preparation and a radio-ligand [^3H] Mesulergine (3.1 TBq/mmol;) or [^3H] Serotonin (5-Hydroxytryptamine) (3.7 TBq/mmol;) was incubated at 25° C. for 1 hour. The compound was dissolved in 100% dimethyl sulfoxide (DMSO) and diluted to respective concentrations. Binding quantity in the presence of 1 μM ritanserin was regarded as the nonspecific binding, and a result of subtracting the nonspecific binding quantity from the total binding quantity was regarded as the specific binding quantity. After adding 4 ml of 50 mM Tris-HCl buffer (pH 7.4) and filtering under a reduced pressure using a GF/B glass filter, the filter was washed (4 ml×3) with the same buffer. By soaking the glass filter in 5 ml of a liquid scintillator (trade name: Aquasol-2), the radioactivity quantity was measured using a liquid scintillation counter. […] Ex represents the Example compound number which is described later.

The test system of the next experiment is male Wistar rats. The experiment is described as follows: Defecation suppressing effect at the time of restraint stress loading (rat restraint stress defecation model). The format is in vivo. As to conditions: for dose from which a significant suppressing action (number of feces excreted) is shown: p.o.; for defecation-suppressing action: 10 mg/kg p.o., restraint stress loaded 30 minutes after the administration; for number of feces excreted, in comparison with the non-administration group: 1, 3 or 10 mg/kg administration group, N=10. On the procedure:
Test Method (4) Defecation Suppressing Effect at the Time of Restraint Stress Loading
The IBS-treating effect of the compound (I) of the present invention was evaluated using a test method in which the amount of excreted feces is measured by loading a restraint stress on rats (see “The Journal of Pharmacology Experimental Therapeutics”, (USA), 1992, vol. 261, p. 297-303).
The agent to be tested was administered to male Wistar rats (body weight 250 to 320 g, 10 animals for each group), and a restraint stress was loaded 30 minutes to 3 hours thereafter. A restraint cage (trade name: KN-468, 265 mm in width×95 mm in length×200 mm in height, Natsume Seisakusho, Tokyo) was used for the restraint stress loading, and the number of feces excreted during 1 hour after the stress loading was counted.

For another experiment, the system named is 5-HT2B receptor. As to conditions: versus 5-HT1A, 5-HT1B, 5-HT2A, 5-HT2C, 5-HT3, 5-HT6, 5-HT7, α1, M1, D2 and the like; cited from earlier work.
Where [1] appears, read: restraint stress loaded 1 hour after the administration.

Structures can show the parent of a compound that is named as a salt. Bounds are passed on as bounds.

T1 sequence (P34969 whole entry): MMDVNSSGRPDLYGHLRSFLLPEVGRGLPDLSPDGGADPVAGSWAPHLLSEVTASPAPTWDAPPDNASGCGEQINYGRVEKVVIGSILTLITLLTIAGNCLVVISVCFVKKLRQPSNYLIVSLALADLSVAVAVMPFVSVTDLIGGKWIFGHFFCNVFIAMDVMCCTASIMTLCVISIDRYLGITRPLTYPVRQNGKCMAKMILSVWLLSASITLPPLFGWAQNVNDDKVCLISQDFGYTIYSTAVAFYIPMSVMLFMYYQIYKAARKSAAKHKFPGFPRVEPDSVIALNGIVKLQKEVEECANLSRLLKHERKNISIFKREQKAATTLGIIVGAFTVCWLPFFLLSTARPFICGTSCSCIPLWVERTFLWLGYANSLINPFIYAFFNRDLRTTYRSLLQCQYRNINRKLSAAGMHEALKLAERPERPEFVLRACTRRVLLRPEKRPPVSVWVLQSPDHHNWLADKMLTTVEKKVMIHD

Take `NC(N)=NC(=O)c1ccc2c(c1)[nH]c(=O)n2Cc1ccc(F)cc1` [Example 10, N-[1-(4-fluoro-benzyl)-2-oxo-2,3-dihydro-1H-benzimidazole-5-carbonyl]-guanidine hydrochloride]: the Ki on human 5-HT7 receptor amounted to 2.8 nM; on human 5-HT2B receptor, 2.7 nM.
The matching figures for `Cc1c(C)n(Cc2ccc(F)cc2)c2ccc(C(=O)N=C(N)N)cc12` [Example 24]: 0.66 nM and 0.24 nM.
As to `Cc1c(S(C)(=O)=O)c2cc(C(=O)N=C(N)N)ccc2n1Cc1ccc(F)cc1` [Example 102], the Ki at human 5-HT7 receptor was 0.36 nM; at human 5-HT2B receptor, 0.12 nM.
Take `CCc1c(C)n(Cc2ccc(F)cc2)c2ccc(C(=O)N=C(N)N)cc12` [Example 103, N-(diaminomethylene)-3-ethyl-1-(4-fluorobenzyl)-2-methyl-1H-indole-5-carboxamide]: the Ki on human 5-HT7 receptor was determined as 1.3 nM; at human 5-HT2B receptor, 0.12 nM. Further, in the experiment on male Wistar rats (setting [1]), the “dose from which a significant suppressing action (number of feces excreted) is shown” value is not below 1 mg/kg.
In the case of `CC(=O)c1c(C)n(Cc2ccc(F)cc2)c2ccc(C(=O)N=C(N)N)cc12` [Example 104, 3-acetyl-N-(diaminomethylene)-1-(4-fluorobenzyl)-2-methyl-1H-indole-5-carboxamide], the Ki on human 5-HT7 receptor came to 1.3 nM; on human 5-HT2B receptor, 0.088 nM.
Turning to `Cc1c(C)n(Cc2ccc(F)cc2)c2ccc(C(=O)NCCN(C)C)cc12` [Example 156], the Ki at human 5-HT7 receptor and at human 5-HT2B receptor was 3.4 nM each time.
Regarding `CCc1c(C)n(Cc2ccc(F)cc2)c2ccc(C(=O)NCCN(C)C)cc12` [Example 226], the inhibitory constant (Ki) on human 5-HT7 receptor was found to be 4.3 nM; at human 5-HT2B receptor, 0.19 nM. The “dose from which a significant suppressing action (number of feces excreted) is shown” value in the experiment on male Wistar rats (setting [1]) is given as not below 1 mg/kg.
Consider `CCc1c(C)n(Cc2ccc(F)cc2)c2ccc(C(=O)N[C@H]3CCN(C)C3)cc12` [Example 236], for which the results for the Ki on human 5-HT7 receptor and on human 5-HT2B receptor were 2.6 nM and 0.29 nM, respectively. In the experiment on male Wistar rats (restraint stress loaded 3 hours after the administration), the “dose from which a significant suppressing action (number of feces excreted) is shown” value is recorded as not below 0.3 mg/kg.
`CCc1c(CC)n(Cc2ccc(F)cc2)c2ccc(C(=O)N[C@H]3CCN(C)C3)cc12` [Example 237]: the inhibition constant Ki at human 5-HT7 receptor amounted to 4.9 nM; on human 5-HT2B receptor, 0.22 nM.
In the same order, the values of `CCc1c(C)n(Cc2ccc(F)cc2)c2ccc(C(=O)N[C@@H]3CCN(C)C3)cc12` [Example 238] are 8 nM and 0.24 nM.
For the compound `Cc1nc2cc(C(=O)N=C(N)N)ccc2n1Cc1ccc(F)cc1` [Example 244, N-(diaminomethylene)-1-(4-fluorobenzyl)-2-methyl-1H-benzimidazol-5-carboxamide], the “dose from which a significant suppressing action (number of feces excreted) is shown” value with male Wistar rats (setting [1]) is recorded as not below 3 mg/kg.
`CC(C)c1cc(-c2ccc(F)c3ccccc23)nc(N)n1` [RS-127445, 2-amino-4-(4-fluoronaphth-1-yl)-6-isopropylpyrimidine, reference compound]: the “5-HT2B receptor-selective by a factor” value in the experiment with 5-HT2B receptor was not below 1000 times. Further, in the experiment on male Wistar rats, the defecation-suppressing action entry is listed as “did not show defecation-suppressing action” and the “number of feces excreted, in comparison with the non-administration group” value is on record as “Significant difference was not found”.
Turning to `CC1CCN(CC[C@H]2CCCN2S(=O)(=O)c2cccc(O)c2)CC1` [SB-269970, (R)-3-(2-(2-(4-methylpiperidin-1-yl)ethyl)pyrrolidine-1-sulfonyl)phenol, reference compound], in the experiment on male Wistar rats, the defecation-suppressing action result is “did not show the defecation-suppressing action” and the “number of feces excreted, in comparison with the non-administration group” value is listed as “Significant difference was not found”.

(Values after US7985764B2, “Amide derivative or salt thereof” (Astellas Pharma Inc., priority 2006, dated 2011).)
